Results from patent publication US20150258108A1 (priority 2014, published 2015).
“And” between values parts separate entries of the source, which are not always exact repeats. Equal entries are not always repeated. “Also recorded” adds a separate entry of the source.

How the values were obtained:
[1] = biological target: T1, OPRK (Homo sapiens, UniProt P41145); experiment: Activation and inhibition bias quantification G-protein/Beta-arrestin2
Protocol: Coupling efficiency (e-coupling) values indicated the relationship between the apparent binding affinity Ki versus the apparent functional potency EC50 of a given agonist ligand and used the equation pKi-pEC50. […] For inhibitory ligands, e-signal was calculated using maximal level of inhibition (Imax) normalized from 0 (basal, buffer) to 1 (agonist without inhibitor). Bias-coupling (quantification of pathway bias) was evaluated by subtracting the EC50 or the Ke issued from the G-protein pathway assays by those issued from β-arrestin pathway assays for a given ligand and in a linear (nM) scale. Bias-efficacy in favor of the G-protein pathway was evaluated by dividing the functional activation and the functional inhibition maximum responses (e-signal) from the G-protein pathway by the beta-arrestin pathway assays for a given ligand.

[2] = QT interval (ΔQTcl) in opioid-dependent patients; assay type: in vivo, human; settings: 60, 120, 180 mg, first 24 hours; correlated with serum concentration
Protocol: Patients' QT intervals were evaluated at regular time points throughout the study.

[3] = Pupillometry and cold pressor test in healthy volunteers; assay type: in vivo, human; settings: 3-60 mg single oral dose
Protocol: Pulse oximetry and capnography data were collected continuously using a GE Carescape B650 monitoring system from 2 hours prior to dosing and until six hours after dosing, and thereafter at 12, 24, 48 and 72 hours post-dosing. Additional oximetry data were collected at 120, 168 and 216 hours. Pupillary miosis was assessed by pupillometry. Dark-adapted pupil diameter was measured in triplicate using a Neuroptics PLR-200 pupillometer under standardized light intensity (<5 lux) pre-dose, and at 2, 4, 6, 12, 24, 48, 72, 96, 120, 168 and 216 hours post-dosing.
Summary statistics (means, standard deviations, and coefficients of variation) were determined for each dose group for safety laboratory test data, ECG and pharmacokinetic parameters, and pharmacodynamic variables. Categorical variables were analysed using counts and percentages. Dose-proportionality of AUC and Cmax was assessed using linear regression. The effect of dose on pharmacodynamic parameter values over time was assessed using two-factor analysis of variance (ANOVA). […]
Analgesic effect was assessed based on duration of hand immersion in ice water and on visual analog scale (VAS) pain scores upon hand removal from the water bath. […]

[4] = biological target: T2, human OPRK (κ-opioid receptor) (Homo sapiens, UniProt P41145); experiment: biochemical; assay type: binding; settings: Ki, OPRK, [3H]-U69,593 binding; This work
T2 construct: purchased PerkinElmer Life Sciences (Boston, Mass.)

[5] = system: human OPRK (κ-opioid receptor); experiment: biochemical; assay type: binding; settings: ΔpKi = pKi(OPRK)-pKi(OPRM)
[6] = Safety and tolerability of noribogaine in healthy humans; assay type: in vivo, human
Protocol: Safety and tolerability of noribogaine were tested in the group of volunteers from Example 1. Cold pressor testing was conducted in 1° C. water according to the method of Mitchell et al. (J. Pain 5:233-237, 2004) pre-dose, 6, 24, 48, 72 and 216 hours post-dosing. Safety evaluations included clinical monitoring, recording of adverse events (AEs), safety laboratory tests, vital signs, ECG telemetry from −2 h to 6 h after dosing, and 12-lead electrocardiograms (ECGs) up to 216 hours post-dosing.

[7] = biological target: T1, OPRK; experiment: cell-based; design: host or cells: CHO-K1
[8] = biological target: T1, OPRK; experiment: biochemical; design: purchased PerkinElmer Life Sciences (Boston, Mass.)
[9] = Ascending single-dose pharmacokinetics of noribogaine in healthy volunteers; settings: for CL/F / Tmax: fasted healthy males, mean (SD), n = 6; for mean AUC/24 hr / mean AUC/24: fasting, serum
[10] = Time to resumption of OST and opiate withdrawal scales (COWS, SOWS, OOWS); assay type: in vivo, human; settings: opioid-dependent patients
[11] = system: OPRD: human opioid receptor delta; settings: previously shown; cited from earlier work

T1 sequence (P41145 whole entry): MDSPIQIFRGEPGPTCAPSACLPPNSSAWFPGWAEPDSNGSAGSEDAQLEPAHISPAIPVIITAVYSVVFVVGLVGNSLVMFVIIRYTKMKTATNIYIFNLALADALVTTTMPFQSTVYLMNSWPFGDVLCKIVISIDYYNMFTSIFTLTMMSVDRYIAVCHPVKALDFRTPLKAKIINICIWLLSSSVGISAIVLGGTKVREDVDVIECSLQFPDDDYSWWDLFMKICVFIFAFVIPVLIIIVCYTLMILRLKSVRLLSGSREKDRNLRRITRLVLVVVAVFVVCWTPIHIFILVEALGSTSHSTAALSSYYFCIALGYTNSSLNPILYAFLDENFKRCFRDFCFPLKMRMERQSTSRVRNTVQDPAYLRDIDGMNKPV
T2 sequence (P41145 whole entry): as above

## CC[C@H]1CC2C[C@H]3c4[nH]c5ccc(O)cc5c4CCN(C2)C13 [Noribogaine]
[1]; Activation
  Bias G-protein/Beta-arrestin2: Bias-coupling: 32
  Bias G-protein/Beta-arrestin2: Bias-efficacy: 0.59
[1]; Inhibition
  Bias G-protein/Beta-arrestin2: Bias-efficacy: −0.35
[1]; Inhibition (fold more potent at inhibiting Dynorphin A-induced β-arrestin-2 recruitment than G-protein activation)
  Bias G-protein/Beta-arrestin2: Bias-coupling: 144
[2]
  QT interval prolongation (ΔQTcl): dose-dependent increase in QT interval prolongation
[3]; hand immersion duration and VAS pain scores
  analgesic effect in the cold pressor test: no analgesic effect
[3]; vs placebo
  pupillary constriction (pupillometry, dark-adapted pupil diameter): no evidence of pupillary constriction
[4]
  Ki: 0.72 µM and 0.7 µM
[5]
  Specificity ΔpKi: 0.4 and 0.3
[6]; 3 mg dose group, healthy volunteers
  adverse events reported: five adverse events were reported by two subjects
[6]; 10 mg dose group, healthy volunteers
  adverse events reported: one adverse event was reported by single subjects
[6]; 30 mg dose group, healthy volunteers
  adverse events reported: one adverse event was reported by single subjects
[6]; 3-60 mg, healthy volunteers
  oximetry, capnography, respiratory rate: no changes in oximetry or capnography, or changes in respiratory rate
  vital signs and safety laboratory tests: no changes in vital signs or safety laboratory tests of note
[6]; Dose 3 mg, healthy volunteers
  Adverse events: Mild: Dizziness; also recorded: Epistaxis; also recorded: Headache; also recorded: Back pain
  Adverse events: Moderate: Headache
[6]; Dose 10 mg, healthy volunteers
  Adverse events: Mild: Headache
[6]; Dose 30 mg, healthy volunteers
  Adverse events: Mild: Headache
[6]; any time, all dose groups 3-60 mg, healthy volunteers
  QTcF values: ≤ 500 ms
[6]; one subject dosed with 10 mg, 24 hours post-dosing
  single increase in QTcF: > 60 ms
[7]
  EC50: ~0.265 µM
  IC50: 1.45 ± 1.1 µM
  Kb: 0.251 µM
[7]; OPRK, Activation
  Beta-Arrestin2 Pathway e-coupling: −0.43
  Beta-Arrestin2 Pathway e-signal: 0.13
[7]; OPRK, Dynorphin A at EC80
  inhibition of agonist response (up to): ~60%
[7]; OPRK, Dynorphin A at EC80 (370 nM Dyn-A)
  IC50: 1.45 µM
[7]; OPRK, Inhibition
  Beta-Arrestin2 Pathway e-coupling: −0.44
  Beta-Arrestin2 Pathway e-signal: 0.60
[7]; OPRK, activation, % of dynorphin A maximal stimulation
  Efficacy (Emax): 12% and 12.6%
[7]; OPRK, activation, pKi-pEC50
  e-coupling: −0.43
[7]; OPRK, inhibition of Dynorphin A at EC80
  Ke: 262 nM
[7]; OPRK, inhibitory component, pKi-pKe
  e-coupling: −0.44
[8]
  Efficacy (Emax): 72%
  Efficacy (inhibition): 25%
  G-protein Pathway e-coupling: 1.72 and 1.08
  IC50: 100 to 300 µM
  e-coupling: 1.08 and 1.22 and 1.72
  own reduced signal level to which rival agonists are leveled down: 70%
[8]; EC50
  EC50: 8.75 µM and 8.7 µM
[8]; EC50 (potency)
  EC50: 8.75 µM and 9 µM
[8]; Ke
  Kb: 15 µM and 24 µM
[8]; pEC50, pKe
  Kb: 12.6 µM and 39.8 µM
[8]; read-out: maximal efficacy relative to Dynorphin A
  Emax: 75%
[9]; 3 mg single oral dose
  CL/F: 41.4 (7.0) L/h
[9]; 10 mg single oral dose
  CL/F: 42.3 (12.0) L/h
[9]; 30 mg noribogaine single oral dose
  Tmax: 1.75 h
[9]; 30 mg single oral dose
  CL/F: 46.9 (16.4) L/h
[9]; 60 mg noribogaine single oral dose
  Tmax: 1.75 h
[9]; 60 mg single oral dose
  CL/F: 34.0 (11.4) L/h
[9]; 3-60 mg single oral doses
  Cmax and AUC versus dose: increased linearly with dose
[9]; across dose groups, healthy volunteers
  time of peak concentrations after oral noribogaine dosing: 2 to 3 h
[9]; across dose groups, healthy volunteers, plasma
  Mean half-life: 28 to 50 h
[9]; male, human, plasma, oral
  Vd: 1420 to 3090 L
[9]; single dose of 3 mg noribogaine free base
  mean AUC/24 hr: 3.1 ng/mL
[9]; single dose of 10 mg noribogaine free base
  mean AUC/24 hr: 10.6 ng/mL
[9]; single dose of 30 mg noribogaine free base
  mean AUC/24: 29.2 ng/mL
[9]; single dose of 60 mg noribogaine free base
  mean AUC/24: 61 ng/mL
[10]; 120 mg
  withdrawal symptoms (COWS, OOWS, SOWS) over first six hours: generally experienced fewer withdrawal symptoms than the other patients
[10]; single 120 mg dose
  average time to resumption of opioids (OST): greater than 20 hours
[11]
  fold less affine at OPRD than at OPRK: ~30 ×
